# Experiments:
# [1] = target: T1, Pcs (Rhizobium redzepovicii, UniProt A0AAW8P1U5); assay: TLC of lipids from expressing E. coli cells, CuSO4 stain; type: cell-based; conditions: endogenous CDP-DAG, 30 °C, 20 h
# T1 construct: pET28b (NdeI/XhoI), expressed in E. coli BL21 (DE3) cells, not purified
# T1 sequence (A0AAW8P1U5 1-242): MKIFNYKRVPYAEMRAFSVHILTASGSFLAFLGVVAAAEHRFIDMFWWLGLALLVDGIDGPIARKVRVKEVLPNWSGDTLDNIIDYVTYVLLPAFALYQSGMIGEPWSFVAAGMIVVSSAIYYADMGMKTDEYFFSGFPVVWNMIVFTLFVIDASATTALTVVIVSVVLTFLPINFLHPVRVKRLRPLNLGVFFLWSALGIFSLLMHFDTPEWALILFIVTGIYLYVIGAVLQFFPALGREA
# [2] = target: T2, PmtR1 (Rhizobium leguminosarum, UniProt A0A2Z4YNE2); assay: in vitro methylation, lipid extraction and TLC with CuSO4 stain; type: biochemical; conditions: SAM; […] KH2PO4 pH […]; […] Triton X-100; […] °C, […] h; with or without PG or CL
# T2 construct: gene DLJ82_4359; His-tagged, pET24b, E. coli BL21 (DE3), Ni-IDA and SEC; 23-25 kDa
# T2 sequence (A0A2Z4YNE2 1-217): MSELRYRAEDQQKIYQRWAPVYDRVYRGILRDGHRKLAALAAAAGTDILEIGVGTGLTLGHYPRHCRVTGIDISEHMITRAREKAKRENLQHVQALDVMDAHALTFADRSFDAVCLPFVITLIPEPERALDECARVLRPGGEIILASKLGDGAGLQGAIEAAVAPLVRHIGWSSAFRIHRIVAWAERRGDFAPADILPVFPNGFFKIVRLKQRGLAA
# [3] = target: T3, PmtS2 (Rhizobium leguminosarum, UniProt A0A2Z4YJT5); assay: as above; type: biochemical; conditions: SAM; […] KH2PO4 pH […]; […] Triton X-100; […] °C, […] h; with or without PG or CL
# T3 construct: gene DLJ82_3306; His-tagged, synthetic gene in pET28b, E. coli BL21 (DE3), Ni-IDA and SEC, one unknown co-purifying protein; 23-25 kDa
# T3 sequence (A0A2Z4YJT5 1-199): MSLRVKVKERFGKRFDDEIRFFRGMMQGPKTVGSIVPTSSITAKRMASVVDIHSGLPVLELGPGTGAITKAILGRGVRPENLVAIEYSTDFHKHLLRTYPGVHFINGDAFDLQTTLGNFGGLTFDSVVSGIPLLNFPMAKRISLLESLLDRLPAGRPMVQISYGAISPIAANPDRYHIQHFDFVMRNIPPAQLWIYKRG
# [4] = target: T4, PmtS1 (Rhizobium leguminosarum, UniProt A0A2Z4YHW5); assay: as above; type: biochemical; conditions: SAM; […] KH2PO4 pH […]; […] Triton X-100; […] °C, […] h; with or without PG or CL
# T4 construct: gene DLJ82_3449; His-tagged, pET24b, E. coli BL21 (DE3), Ni-IDA and buffer exchange only (partly pure); 23-25 kDa
# T4 sequence (A0A2Z4YHW5 1-223): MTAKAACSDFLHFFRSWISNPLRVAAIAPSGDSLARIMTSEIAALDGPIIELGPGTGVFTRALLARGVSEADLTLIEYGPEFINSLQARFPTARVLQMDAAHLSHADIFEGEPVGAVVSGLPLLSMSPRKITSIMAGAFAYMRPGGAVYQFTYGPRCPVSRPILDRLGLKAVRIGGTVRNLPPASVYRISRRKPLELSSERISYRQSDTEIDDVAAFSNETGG
SMILES,"in vitro methylation, lipid extraction and TLC with CuSO4 stain [2]","in vitro methylation, lipid extraction and TLC with CuSO4 stain [3]",further results
C[N+](C)(C)CCO [choline],–,–,"TLC of lipids from expressing E. coli cells, CuSO4 stain ([1]; M9 minimal medium with 1 mM choline): PC formation was restored upon choline supplementation (Fig. 2B)"
"CCCCCCCC/C=C\CCCCCCCC(=O)OC[C@H](COP(=O)(O)OCCNC)OC(=O)CCCCCCC/C=C\CCCCCCCC [MMPE, 1,2-dioleoyl-sn-glycero-3-phosphoethanolamine-N-methyl]","When MMPE was employed as a substrate, only barely detectable amounts of PC were synthesized",–,–
"CN(C)CCO [DMEA, 2-(dimethylamino)ethanol]",–,–,"TLC of lipids from expressing E. coli cells, CuSO4 stain ([1]; M9 minimal medium with 1 mM DMEA): effectively converting these methylated substrates into MMPE and DMPE (Fig. 2B)"
"CCCCCCCC/C=C\CCCCCCCC(=O)OC[C@H](COP(=O)(O)OCCN)OC(=O)CCCCCCC/C=C\CCCCCCCC [PE, 1,2-dioleoyl-sn-glycero-3-phosphoethanolamine]",–,PE was methylated to MMPE and small amounts of DMPE and PC,"in vitro methylation, lipid extraction and TLC with CuSO4 stain [4]: the conversion of only PE to MMPE by the purified protein (Fig. 4A)"
"CCCCCCCC/C=C\CCCCCCCC(=O)OC[C@H](COP(=O)(O)OCCN(C)C)OC(=O)CCCCCCC/C=C\CCCCCCCC [DMPE, 1,2-dioleoyl-sn-glycero-3-phosphoethanolamine-N,N-dimethyl]",DMPE proved to be the most efficiently used substrate for PmtR1,"DMPE was methylated to PC, and this activity was stimulated by PG",–
